Assay [1] deals with human CB2 receptors (Homo sapiens (Human), UniProt P34972). Description: functional cAMP assay, CB2. Type of assay: cell-based. The following applies: CHO cells expressing human CB2. A general note: Changes in cAMP serve as a functional read-out for many G protein-coupled receptors.
Assay [2] concerns the target human CB1 receptors (Homo sapiens (Human), UniProt P21554). Description: functional cAMP assay, CB1. Type of assay: cell-based. The following applies: CHO cells expressing human CB1.

As usually defined, the EC50 is the concentration giving half of the maximal effect.

SMILES strings stand for the structures.

Chain of human CB1 receptors (P21554 whole entry): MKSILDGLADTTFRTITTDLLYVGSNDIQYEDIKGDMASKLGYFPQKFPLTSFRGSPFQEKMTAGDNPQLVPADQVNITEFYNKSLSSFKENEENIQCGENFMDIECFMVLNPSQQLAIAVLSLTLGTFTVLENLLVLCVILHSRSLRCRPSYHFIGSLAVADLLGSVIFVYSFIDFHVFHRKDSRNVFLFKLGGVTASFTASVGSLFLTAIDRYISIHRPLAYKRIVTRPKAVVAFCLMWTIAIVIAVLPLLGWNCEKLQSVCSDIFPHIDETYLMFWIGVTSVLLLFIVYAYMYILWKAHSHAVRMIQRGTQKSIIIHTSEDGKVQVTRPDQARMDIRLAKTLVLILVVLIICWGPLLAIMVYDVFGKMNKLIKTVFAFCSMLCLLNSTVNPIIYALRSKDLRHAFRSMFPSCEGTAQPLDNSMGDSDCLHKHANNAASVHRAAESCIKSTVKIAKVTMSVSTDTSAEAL
Chain of human CB2 receptors (P34972 whole entry): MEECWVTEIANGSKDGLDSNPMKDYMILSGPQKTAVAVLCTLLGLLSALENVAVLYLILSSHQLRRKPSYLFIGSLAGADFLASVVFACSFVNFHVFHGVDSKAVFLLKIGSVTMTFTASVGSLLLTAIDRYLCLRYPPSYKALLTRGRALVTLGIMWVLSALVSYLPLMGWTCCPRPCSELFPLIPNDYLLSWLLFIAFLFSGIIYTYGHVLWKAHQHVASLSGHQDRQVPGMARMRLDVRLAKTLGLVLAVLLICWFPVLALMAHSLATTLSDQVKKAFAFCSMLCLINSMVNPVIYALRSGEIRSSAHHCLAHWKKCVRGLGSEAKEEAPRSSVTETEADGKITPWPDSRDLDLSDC

Consider `Cc1nnc(Cn2cnc3c(N4CCC(F)(F)C4)nc(OCC(C)(C)C)nc32)o1` [Example 127, 2-[[6-(3,3-difluoropyrrolidin-1-yl)-2-(2,2-dimethylpropoxy)purin-9-yl]methyl]-5-methyl-1,3,4-oxadiazole], for which the EC50 in assay [1] was 332 nM; in assay [2] it was over 10 µM.
For the molecule `Cc1noc(Cn2cnc3c(N4CCC(F)(F)C4)nc(OCC(C)(C)C)nc32)n1` [Example 128, 5-[[6-(3,3-difluoropyrrolidin-1-yl)-2-(2,2-dimethylpropoxy)purin-9-yl]methyl]-3-methyl-1,2,4-oxadiazole], the EC50 in assay [1] was 109 nM; in assay [2], over 10 µM.
The matching figures for `Cn1nnnc1Cn1cnc2c(N3CCC(F)(F)C3)nc(OCC(C)(C)C)nc21` [Example 129, 6-(3,3-difluoropyrrolidin-1-yl)-2-(2,2-dimethylpropoxy)-9-[(1-methyltetrazol-5-yl)methyl]purine]: 95.6 nM and over 10 µM.
`CC(C)(C)Nc1nc(N2CC[C@H](O)C2)c2ncn(CCC(F)(F)F)c2n1` [Example 130, (3S)-1-[2-(tert-butylamino)-9-(3,3,3-trifluoropropyl)purin-6-yl]pyrrolidin-3-ol]: the concentration giving a half-maximal response (EC50) in assay [1] is 215 nM; in assay [2] it was over 10 µM.
As to `CC(C)(C)COc1nc(N2CCC(C)(O)C2)c2ncn(Cc3ccccc3Cl)c2n1` (stereo not shown) [Example 131, 1-[9-[(2-chlorophenyl)methyl]-2-(2,2-dimethylpropoxy)purin-6-yl]-3-methyl pyrrolidin-3-ol], the results for the 50% effective concentration (EC50) in assay [1] and in assay [2] were 66.7 nM and over 10 µM, respectively.
On to `CC(C)(C)COc1nc(N2CCC(C)(O)C2)c2ncn(Cc3ccccc3C(F)(F)F)c2n1` (stereo not shown) [Example 132, 1-[2-(2,2-dimethylpropoxy)-9-[[2-(trifluoromethyl)phenyl]methyl]purin-6-yl]-3-methylpyrrolidin-3-ol], for which the results for the EC50 in assay [1] and in assay [2] were 22.1 nM and over 10 µM, respectively.
Turning to `CC(C)(C)COc1nc(N2CCC(C)(O)C2)c2ncn(Cc3ccccc3S(C)(=O)=O)c2n1` (stereo not shown) [Example 133, 1-[2-(2,2-dimethylpropoxy)-9-[(2-methylsulfonylphenyl)methyl]purin-6-yl]-3-methylpyrrolidin-3-ol], the EC50 is 149 nM in assay [1] and over 10 µM in assay [2].
In the case of `CC(C)(C)COc1nc(N2CCC(C)(O)C2)c2ncn(Cc3ncccc3Cl)c2n1` (stereo not shown) [Example 134, 1-[9-[(3-chloropyridin-2-yl)methyl]-2-(2,2-dimethylpropoxy)purin-6-yl]-3-methylpyrrolidin-3-ol], the EC50 in assay [1] was 178 nM; in assay [2], over 10 µM.
Take `Cc1nonc1Cn1cnc2c(N3CCC(C)(O)C3)nc(OCC(C)(C)C)nc21` (stereo not shown) [Example 135, 1-[2-(2,2-dimethylpropoxy)-9-[(4-methyl-1,2,5-oxadiazol-3-yl)methyl]purin-6-yl]-3-methylpyrrolidin-3-ol]: the EC50 was 30.7 nM in assay [1] and over 10 µM in assay [2].
Turning to `CC1(O)CCN(c2nc(NC(C)(C)C)nc3c2ncn3Cc2c[nH]nc2C(F)(F)F)C1` (stereo not shown) [Example 136, 1-[2-(tert-butylamino)-9-[[3-(trifluoromethyl)-1H-pyrazol-4-yl]methyl]purin-6-yl]-3-methylpyrrolidin-3-ol], the EC50 is 150 nM in assay [1] and over 10 µM in assay [2].
As for `CC(C)(C)Nc1nc(N2CC3(COC3)C2)c2ncn(Cc3ccccc3Cl)c2n1` [Example 138, N-tert-butyl-9-[(2-chlorophenyl)methyl]-6-(2-oxa-6-azaspiro[3.3]heptan-6-yl)purin-2-amine], the results for the EC50 in assay [1] and in assay [2] were 78.1 nM and over 10 µM, respectively.
In the case of `CC(C)(C)c1nc(N2CC[C@H](O)C2)c2ncn(Cc3nnnn3C3CC3)c2n1` [Example 139, (3S)-1-[2-tert-butyl-9-[(1-cyclopropyltetrazol-5-yl)methyl]purin-6-yl]pyrrolidin-3-ol], the EC50 in assay [1] was 201 nM; in assay [2], over 10 µM.
In the case of `Cc1nonc1Cn1cnc2c(N3CCC(F)(F)C3)nc(OCC(C)(C)C)nc21` [Example 140, 3-[[6-(3,3-difluoropyrrolidin-1-yl)-2-(2,2-dimethylpropoxy)purin-9-yl]methyl]-4-methyl-1,2,5-oxadiazole], the EC50 in assay [1] is 9.2 nM; in assay [2], over 10 µM.
In the case of `Cc1noc(Cn2cnc3c(N4CC5(COC5)C4)nc(NC(C)(C)C)nc32)n1` [Example 141, N-tert-butyl-9-[(3-methyl-1,2,4-oxadiazol-5-yl)methyl]-6-(2-oxa-6-azaspiro[3.3]heptan-6-yl)purin-2-amine], the EC50 is 40.9 nM in assay [1] and over 10 µM in assay [2].
On to `CC(C)(C)Nc1nc(N2CC3(COC3)C2)c2ncn(CCC(F)(F)F)c2n1` [Example 142, N-tert-butyl-6-(2-oxa-6-azaspiro[3.3]heptan-6-yl)-9-(3,3,3-trifluoropropyl)purin-2-amine], for which the EC50 in assay [1] is 681 nM; in assay [2], over 10 µM.
Take `CC(C)(C)COc1nc(N2CC3(COC3)C2)c2ncn(Cc3ccccc3Cl)c2n1` [Example 143, 6-[9-[(2-chlorophenyl)methyl]-2-(2,2-dimethylpropoxy)purin-6-yl]-2-oxa-6-azaspiro[3.3]heptane]: the EC50 in assay [1] is 268 nM; in assay [2] it was over 10 µM.
For the molecule `Cc1nonc1Cn1cnc2c(N3CCC[C@@H]3CO)nc(C(C)(C)C)nc21` [Example 145, [(2R)-1-[2-tert-butyl-9-[(4-methyl-1,2,5-oxadiazol-3-yl)methyl]purin-6-yl]pyrrolidin-2-yl]methanol], the EC50 was 6.1 nM in assay [1] and over 10 µM in assay [2].
On to `CC(C)(C)c1nc(N2CCC[C@@H]2C#N)c2ncn(Cc3nnnn3C3CC3)c2n1` [Example 147, (2R)-1-[2-tert-butyl-9-[(1-cyclopropyltetrazol-5-yl)methyl]purin-6-yl]pyrrolidine-2-carbonitrile], for which the EC50 is 176 nM in assay [1] and over 10 µM in assay [2].
On to `Cc1nonc1Cn1cnc2c(N3CCC[C@@H]3C#N)nc(C(C)(C)C)nc21` [Example 148, (2R)-1-[2-tert-butyl-9-[(4-methyl-1,2,5-oxadiazol-3-yl)methyl]purin-6-yl]pyrrolidine-2-carbonitrile], for which the values for the EC50 in assay [1] and in assay [2] were 15.7 nM and over 10 µM, respectively.
As to `Cc1nonc1Cn1cnc2c(N3CC4(COC4)C3)nc(C(C)(C)C)nc21` [Example 149, 6-[2-tert-butyl-9-[(4-methyl-1,2,5-oxadiazol-3-yl)methyl]purin-6-yl]-2-oxa-6-azaspiro[3.3]heptane], the EC50 in assay [1] is 185 nM; in assay [2], over 10 µM.
For the molecule `Cc1nonc1Cn1cnc2c(N3CCSC3)nc(C(C)(C)C)nc21` [Example 150, 3-[[2-tert-butyl-6-(1,3-thiazolidin-3-yl)purin-9-yl]methyl]-4-methyl-1,2,5-oxadiazole], the EC50 in assay [1] was 10.5 nM; in assay [2], over 10 µM.
Turning to `CC(C)(C)COc1nc(N2CCC(F)(F)C2)c2nc[nH]c2n1` [Example 151, 6-(3,3-difluoropyrrolidin-1-yl)-2-(2,2-dimethylpropoxy)-9H-purine], the EC50 in assay [1] is 28.7 nM; in assay [2] it was over 10 µM.
The matching figures for `FC1(F)CCN(c2nc(Cl)nc3c2ncn3Cc2ccccc2)C1` [Example 154, 9-benzyl-2-chloro-6-(3,3-difluoropyrrolidin-1-yl)purine]: 211 nM and over 10 µM.
The matching figures for `CC(C)n1nnnc1Cn1cnc2c(N3CC[C@H](O)C3)nc(C(C)(C)C)nc21` [Example 155, (3S)-1-[2-tert-butyl-9-[(1-propan-2-yltetrazol-5-yl)methyl]purin-6-yl]pyrrolidin-3-ol]: 82.3 nM and over 10 µM.
The like results for `CC(C)(C)c1nc(N2CCC(F)(F)C2)c2ncn(Cc3nnnn3C3CC3)c2n1` [Example 156, 2-tert-butyl-9-[(1-cyclopropyltetrazol-5-yl)methyl]-6-(3,3-difluoropyrrolidin-1-yl)purine] were, in that order, 9.1 nM and over 10 µM.
In the case of `CC(C)(C)c1nc(N2CCC[C@@H]2CO)c2ncn(Cc3ncccc3Cl)c2n1` [Example 157, [(2R)-1-[2-tert-Butyl-9-[(3-chloropyridin-2-yl)methyl]purin-6-yl]pyrrolidin-2-yl]methanol], the EC50 was 4.3 nM in assay [1] and over 10 µM in assay [2].
In the case of `CCCn1nnnc1Cn1cnc2c(N3CC[C@H](O)C3)nc(C(C)(C)C)nc21` [Example 158, (3S)-1-[2-tert-butyl-9-[(1-propyltetrazol-5-yl)methyl]purin-6-yl]pyrrolidin-3-ol], the EC50 in assay [1] was 61.6 nM; in assay [2], over 10 µM.
As for `CC(C)(C)c1nc(N2CC[C@H](O)[C@H]2CO)c2ncn(Cc3ncccc3Cl)c2n1` [Example 159, (2R,3S)-1-[2-tert-butyl-9-[(3-chloropyridin-2-yl)methyl]purin-6-yl]-2-(hydroxymethyl)pyrrolidin-3-ol], the figures for the EC50 in assay [1] and in assay [2] were 591 nM and over 10 µM, respectively.
With `CC(C)(C)c1nc(N2CCSC2)c2ncn(Cc3ncccc3Cl)c2n1` [Example 161, 3-[2-tert-butyl-9-[(3-chloropyridin-2-yl)methyl]purin-6-yl]-1,3-thiazolidine], the EC50 in assay [1] was 12.6 nM; in assay [2] it was over 10 µM.
The matching figures for `CC(C)(C)c1nc(N2CCC[C@@H]2C#N)c2ncn(Cc3ncccc3Cl)c2n1` [Example 163, (2R)-1-[2-tert-Butyl-9-[(3-chloropyridin-2-yl)methyl]purin-6-yl]pyrrolidine-2-carbonitrile]: 6.9 nM and over 10 µM.
The like results for `CC(C)(C)c1nc(N2CC[C@H](O)C2)c2ncn(Cc3nnnn3CC3CC3)c2n1` [Example 164, (3S)-1-[2-tert-butyl-9-[[1-(cyclopropylmethyl)tetrazol-5-yl]methyl]purin-6-yl]pyrrolidin-3-ol] were, in that order, 20.7 nM and over 10 µM.
As for `CC(C)(C)c1nc(N2CC(O)(C(F)(F)F)C2)c2ncn(Cc3ncccc3Cl)c2n1` [Example 167, 1-[2-tert-butyl-9-[(3-chloropyridin-2-yl)methyl]purin-6-yl]-3-(trifluoromethyl)azetidin-3-ol], the EC50 in assay [1] is 35 nM; in assay [2], over 10 µM.
